One data set concerns CD4+ lymphocytes. Kind of data set: PHA response of CD4+ enriched human lymphocytes. It counts as cell-based. The conditions noted are these: MIMP 1-200 μg/ml, 3 donors, p <0.01. From the text:
Human CD4+ and CD8+ lymphocyte subsets were obtained from normal controls using commercial panning techniques (Applied Immune Sciences, Santa Clara, Calif.).
Human peripheral blood lymphocytes are on average approximately 80% T lymphocytes and 20% B lymphocytes and of the T lymphocytes, 2/3 are of the CD4+ helper/inducer phenotype and 1/3 are the CD8+ suppressor/cytotoxic phenotype. Enrichment of CD4+ T cells or CD8+ T cells can be achieved through reduction of the other phenotype (>98%) removal using adherence to monoclonal antibody-coated flasks (panning).

The test system of data set [1] is human peripheral blood lymphocytes (HPBL). Kind of data set: Reversal of suppression of HPBL PHA response by HIV gp41 peptide, interferon α and PGE2. The note with it: for effect on gp41 peptide-suppressed PHA proliferation: MIMP 0.1-100 μg/ml. It counts as cell-based. The source says: A 17 amino acid sequence from the gp41 portion of the gp16O peptide of the human immunodeficiency virus (HIV) was synthesized and kindly provided to us by M. Strand (Johns Hopkins University, Baltimore, Md.) (Reugg and Strand, 1990).
Prostaglandin E2 was obtained from Sigma Chemicals (St. Louis, Mo.) and recombinant interferon-α (IFNα, Intron A) was obtained from Schering Corp. (Kenilworth, N.J.).
A synthetic 17 amino acid peptide representing the immunosuppressive site of the intramembranous gp41 portion of the human immunodeficiency virus (HIV) was tested on lymphocytes from controls. […] The effect of MIMP from 0.1-100 μg/ml was examined in combination with varying degrees of inhibition by the peptide.
Virus infections are associated with depressed lymphoproliferative responses.

In data set [2] the test system is mouse spleen lymphocytes (MSL). The data set is described as follows: Mouse spleen lymphocyte proliferation to Con A. Type of data set: cell-based. The procedure: In vitro: Both human peripheral blood lymphocytes (HPBL) and mouse spleen lymphocytes (MSL) were employed. […] For HPBL transformation, PHA and PWM were used at 0.5 μg/ml. For MSL transformation, Con A was used at 0.5 μg/ml, phytohemagglutinin (PHA, Murex Diagnostics, Atlanta, Ga.) at 0.5 μg/ml and lipopolysaccharide endotoxin (LPS, Sigma, St. Louis, Mo.) at 10 μg/ml.
They were cultured in microwell plates at 1.5×10^6 cells/ml of minimal essential media (MEM, Gibco Labs, Grand Island, N.Y.) with 5% fetal calf serum (FCS, Hyclone Labs, Logan, Utah) and tested for their proliferative response to mitogens as measured by incorporation of (^3 H) tritiated thymidine (New England Nuclear, Wilmington Del., […]; 2.5 μCi/ml) during a terminal pulse followed by liquid scintillation spectrometry.

The test system of another data set is spleen lymphocytes. The data set is described as follows: In vitro response to mitogens following in vivo oral administration. More on the design: species or system mice. The conditions noted are these: oral Me-IMP for five days, 0-100 mg/kg. The procedure:
In vivo: Compounds were administered orally, by garage, or intraperitoneally. At termination, spleens were obtained as described in Florentin et al. (1982) and cells were prepared for proliferative response with Con A=0.5 μg/ml, PHA=0.5 μg/ml or LPS=0.5 μg/ml.
Spleen lymphocytes were obtained from mice that had been orally administered Me-IMP for five days, range of 0-100 mg/kg body weight, and then sacrificed. The spleen lymphocytes were incubated with PHA (0.5 μg/ml) or Con A (0.5 μg/ml) for 48 hours. Cultures were pulsed with tritiated thymidine for the last 18 hours.

Another data set is described as follows: Acute toxicity (LD50). The note with it: in vivo.
For data set [3], the system named is delayed-type hypersensitivity response. Kind of data set: Delayed-type hypersensitivity in vivo (footpad swelling, SRBC). More on the design: species or system mice. The procedure:
Mice were immunized by intraperitoneal administration of SRBC in graded doses of from 10^6 to 10^9 cells. […] A dose of 10^7 was chosen to immunize animals in this study.
Four days following immunization, each mouse was challenged by injecting the left hind footpad subcutaneously with 10^8 SRBC in 50 μl phosphate buffered saline (PBS). Vehicle (50 μl PBS) was injected subcutaneously into the right hind footpad as a control. The compounds being tested were injected intraperitoneally either at the time of immunization or at the time of elicitation. After 24 hours of challenge, footpad swelling was measured as the increase in footpad thickness (left minus right) using Engineer's calipers.
The results are expressed as increments of footpad thickness in 0.1 mmunits. The characteristics of delayed-type hypersensitivity measured in this way have been described previously in MacDonald et al. (1979). FIGS. 13 and 14 show the results of this testing.

The test system of the next data set is influenza virus. Type of data set: in vivo, NMRI mice. The note with it: for % mortality: Table 7, 200 μg, i.n.
In another data set the test system is anti-HBs. The data set is described as follows: Anti-HBs responses in immunocompromised irradiated DBA/2 mice (EIA). The conditions noted are these: for anti-HBs, Day 21: p < 0.01. Type of data set: in vivo. The procedure:
Experimental mice were irradiated at a dose rate of 25 rad/min (1 rad=0.01 Gy) using a ^60 Coγ beam source for four minutes. Data represent the average of ten animals in each group.
Serum specimens from immunized mice were tested for the presence of anti-HBs in an enzyme immunoassay (EIA) using the diagnostic kits of Roche Diagnostica as per the manufacturer's instructions. The anti-HBs EIA kit (Roche), has a sensitivity of <10 IU/1.
Antibody concentration was determined with the help of calibration curves designed on the basis of the results of anti-HBs detection in standard serum panel (Roche Diagnostica) with the concentrations, as follows: 10 IU/l; 50 IU/l; 100 IU/l and 150 IU/l. The results of the two experiments were used for the calculation of mean values.
In a second set of experiments, the effect of MIMP on the induction of a specific immune response to HBsAg in immunocompromised DBA/2 mice subjected to ionizing radiation was analyzed using the same vaccination schemes as set forth for the control DBA/2.

A further data set has as its system IL-10. The data set is described as follows: PHA-induced IL-10 production. The note with it: preliminary data. It counts as cell-based.
In the next data set the test system is prothymocytes. The note with it: Touraine et al., 1991; cited from earlier work.
Setting [4] is: scheme 6: Radiation + scheme N2 (HBsAg + MIMP per os).
The mark [5] stands for this setting: scheme 7: Radiation + scheme N3 (HBsAg + MIMP i.p. then per os).

Broadly, the LD50 is the dose expected to kill half of the subjects tested. Read a low LD50 as greater toxicity.

Like-named read-outs stand apart in the source and are kept apart here. Some results are limits rather than exact numbers.

As to `COP(=O)(O)OC[C@H]1O[C@@H](n2cnc3c(=O)[nH]cnc32)[C@H](O)[C@@H]1O` [Me-IMP, Methyl-5'-inosine-monophosphate], the “PHA response of CD4+ lymphocytes” value with CD4+ lymphocytes is given as “significantly augmented”. In addition, the “effect on gp41 peptide-suppressed PHA proliferation” value in [1] (inhibition more severe (>50%)) is “not significant”; in data set [1] (peptide-induced suppression less than 50%) it was “restored the proliferative responses to near-normal ranges”. Also, in data set [1] (MIMP 1, 10, 100 μg/ml, 10 and 100 units/ml IFN α), the “effect on rIFN-α inhibition of PHA response” value is listed as “reverse the inhibition when it is moderate”. In addition, the “effect on PGE2 inhibition of PHA response” value in data set [1] (MIMP 1-100 μg/ml, PGE2 10^-5 M) is recorded as “reverse the inhibition”. Besides, the “relative potency, in vitro mouse lymphocyte proliferation” value in [2] is listed as “most potent”. In addition, the “proliferative responses of MSL to Con A” value in data set [2] (0.1, 1, 10, 100 μg/ml, Con A 0.5 μg/ml) is given as “stimulated the proliferative responses”. Also, the “Con A response of spleen lymphocytes” value with spleen lymphocytes is recorded as “stimulated”. Besides, the “PHA response of spleen lymphocytes” value with spleen lymphocytes was “stimulated”. In addition, the LD50 in the data set “Acute toxicity (LD50)” (ip, intraperitoneally) was above 500 mg/kg; in the data set “Acute toxicity (LD50)” (po, orally), above 5000 mg/kg. For the same compound, the delayed-type hypersensitivity response entry is recorded as “not significant” in [3] (one dose i.p. at the time of challenge) and “significantly stimulated” in data set [3] (one dose i.p. at the time of immunization). In addition, the “% mortality” value with influenza virus (-1 h) stood at 80%; in the data set on influenza virus (-1 d) it was 60%. In addition, in the data set on influenza virus (mouse, in vivo), the “number of survivors and mean survival time (MST)” value is “increased the number of survivors and mean survival time”. In addition, the “survival and MST” value in the data set on influenza virus (mouse, in vivo) was “increased survival and MST”. Further, the “anti-HBs, Day 14” value with anti-HBs (setting [4]) and in the data set with anti-HBs (setting [5]) was below 10 IU/1 in each case. Also, the “anti-HBs, Day 21” value in the data set with anti-HBs (setting [4]) and in the data set on anti-HBs (setting [5]) was 100 IU/1 throughout. Moreover, the “effect on IL-10 production” value with IL-10 was “potently inhibits”. The “differentiation markers of prothymocytes” value with prothymocytes was “induce differentiation markers of prothymocytes”.

Source of the values: patent publication US5614504A, “Method of making inosine monophosphate derivatives and immunopotentiating uses thereof” (The University of South Florida, priority 1995, dated 1997).
